Measurements reported in patent US20210346288A1, “PHARMACEUTICAL FORMULATION CONTAINING ACTIVE METABOLITES OF REMDESIVIR FOR INHALATION” (priority 2020, published 2021).

What was measured:
[1] = Influence of pH and pH adjuster on stability of RV-MP solution (HPLC impurities, 60° C./75% RH); assay type: physicochemical
Method: (§1) Remdesivir monophosphate disodium salt is the salt of nucleoside monophosphate. The stability of remdesivir monophosphate disodium salt (referred to as RV-MP) is highly dependent on the pH. Four samples were prepared, having pH 3.0, 4.0, 5.0, 6.0. 23 ml of purified water was adjusted to the target pH with hydrochloric acid. RV-MP according to the amounts provided in table 5 was added to the solution, and the resulting mixture was sonicated until completely dissolved. The resulting mixture was adjusted to the target pH with hydrochloric acid. Finally, purified water was added to provide a final weight of 25.0 g.
(§2) Impurities Detection Method: HPLC Detection Method • Column: YMC-triart C 18, 4.6*150 mm, S-5 μm, 12 nm; • Flow: 0.8 ml/min • Injection volume: […], • Column temperature: 40° C. • A: Weigh 2.7 g of sodium dihydrogen phosphate, add 1 L of purified water, stir to dissolve, and filter to obtain. • B: Methanol
as §1, with “The” for “Remdesivir monophosphate disodium salt is the salt of nucleoside monophosphate. The”, “Five” for “Four”, “3.2, 3.5, 3.8, 4.0.” for “4.0, 5.0, 6.0.”, “citric” for “hydrochloric”, “Table 10” for “table 5”
as §1, with “The” for “Remdesivir monophosphate disodium salt is the salt of nucleoside monophosphate. The”, “Five” for “Four”, “3.2, 3.5, 3.8, 4.0.” for “4.0, 5.0, 6.0.”, “HCl.” for “hydrochloric acid.”, “Table 16” for “table 5”, “Then the” for “The”

[2] = Strong degradation test under light conditions (HPLC impurities); assay type: physicochemical
Method: as §2
Sample 15: 60 mg RV_MP dissolved in 100 ml purified water.
The sample 15 was placed in light conditions, and the placement time was 2 hours, 4 hours, 6 hours, 24 hours, 48 hours, 72 hours, and the impurity detection method in Example 5 was used to detect the samples.
The impurity detection method of the present invention is the same as the impurity detection method in Example 5.

remdesivir monophosphate disodium salt [RV-MP]
Stability of RV-MP solution at 60° C. ([1]; 60° C.): unstable | Stability of RV-MP formulations ([1]; adjusting pH using HCl): stable at pH 3.0-4.0 | pH of highest stability ([1]; adjusting pH using HCl, pH 3.0-6.0 tested): 3.0 | Stability of resulting solution ([1]; using HCl to adjust the pH, compared with citric acid): more stable | Stability of resulting solution ([1]; using citric acid to adjust the pH, especially at pH3.0): unstable | Stability of RV-MP solution under light condition [2]: unstable
